Test results taken from article PMC6450887, “Metabolic resistance of the D-peptide RD2 developed for direct elimination of amyloid-β oligomers” (Scientific Reports, 2019).
Non-standard residues stand in square brackets, D forms with d. Residues, ends and D or L forms follow the SMILES beside them.

Assays:
MTT cell viability assay = format: cell-based, rat; conditions: rat, cell viability
Protocol: (§1) Rat PC12 (pheochromocytoma) cells (Leibniz Institute DSMZ, Braunschweig, Germany) were cultivated in Dulbecco’s Modified Eagle Medium (DMEM) supplemented with 10% fetal bovine serum, 5% horse serum and 1% penicillin-streptomycin. 10,000 cells per well were seeded on collagen A-coated 96-well plates (Thermo Fisher Scientific, Waltham, USA) and incubated in a 95% humidified atmosphere with 5% CO2 at 37 °C for 24 h. Samples with untreated RD2 and RD2 or HSM-3 purified from human liver microsomes (see 2.8) in 10 mM sodium phosphate buffer (pH 7.4) were prepared. Buffer without peptides and Triton X-100 (cytotoxic compound) served as controls. The samples were added to the PC12 cells in quadruple and incubated in 95% humidified atmosphere with 5% CO2 at 37 °C for 24 h. Final concentrations were 2 µM untreated RD2, purified RD2, purified HSM-3 and 0.125% Triton X-100. Cell viability was then measured using the Cell Proliferation Kit I (MTT) (Roche, Basel, Switzerland) according to the manufacturer’s instruction. The final absorbance of the formazan product was determined as the absorbance at 570 nm subtracted by the absorbance at 660 nm. All results were normalized to cells that were treated with buffer only. The experiments were performed in triplicate.

[1] = system: Rat PC12 (pheochromocytoma) cells; test: MTT cell viability assay; format: cell-based; conditions: rat, 24 h, 2 µM
Protocol: as §1

Question: Which results are given for `CC(C)C[C@@H](NC(=O)[C@H](NC(=O)[C@H]1CCCN1)[C@H](C)O)C(=O)N[C@H](Cc1c[nH]cn1)C(=O)N[C@@H](C(=O)N[C@H](Cc1c[nH]cn1)C(=O)N[C@H](CC(N)=O)C(=O)N[C@H](CCCNC(=N)N)C(=O)N[C@H](CCCNC(=N)N)C(=O)N[C@H](CCCNC(=N)N)C(=O)N[C@H](CCCNC(=N)N)C(=O)N[C@H](CCCNC(=N)N)C(N)=O)[C@H](C)O` [RD2, ptlhthnrrrrr] (H-[dP][dT][dL][dH][dT][dH][dN][dR][dR][dR][dR][dR]-NH2)?
Answer: viability at 24 h, 2 µM (MTT cell viability assay): 99 ± 4%; cell viability [1]: 93 ± 6%
